According to patent US20040242870A1, “Antiviral methods and compounds” (priority 2000, published 2004):
Values after ≈ are worked out from the molar mass of the structure shown.

How the values were obtained:
[1] = test system: HIV-1 strain RoJo; test: PBMC time-of-addition assay (RT in cell-free supernatant at 6 days); assay type: cell-based
Description: Peripheral blood monocular cells (PBMCs) were obtained from normal hepatitis and HIV-1 negative donors by ficoll hypaque gradient separation. The mononuclear cells were washed to remove residual separation media, counted, viability determined and resuspended in RPMI 1640 medium supplemented with 15 % FBS (heat inactivated), 2 mM L-glutamine, 100 U/mL penicillin, 100 μg/mL streptomycin, and 10 μg/mL gentamycin with 2 μg/mL phytohemagluttin (PHA) at 1×10^6 cells/mL. The cells were cultured for 48 to 72 h at 37° C., 5% CO2. Following incubation, cells were collected by centrifugation, washed and resuspended in RPMI 1640 supplemented with 15% FBS (heat inactivated), 2 mM L-glutamine, 100 U/mL penicillin, 100 μg/mL streptomycin, and 10 μg/mL gentamycin with 20 U/mL recombinant IL-2 (R & D Systems, Minneapolis, Minn.). IL-2 was included in the culture medium to maintain the cell division initiated by the PHA mitogenic stimulation, and promote optimal growing conditions for the PBMCs. The cultures were then maintained until use by ½ culture volume change with fresh IL-2 containing medium every 3 days.
(§1) Human peripheral blood mononuclear cells from a minimum of 2 donors, that have been blasted with PHA and IL-2, were counted, viability determined by Trypan Blue dye exclusion and mixed in equal ratios. Pooled donors were used to minimize the variability observed between individual donors which results from quantitative and qualitative differences in HIV infection and overall response to the PHA and IL-2 of primary lymphocyte populations. The cells were resuspended at 1×10^6 cells/mL in RPMI 1640 without phenol red supplemented with 15% Fetal Bovine Serum (heat inactivated), 2 mM L-glutamine, 100 U/mL penicillin, 100 μg/mL streptomycin, 10 μg/Ln gentamycin and IL-2 (20 U/mL, R&D Systems, Minneapolis, Minn.). Fifty microliters of cells were then distributed to the inner 60 wells of a 96 well round bottom microtiter culture plate in a standard format developed by the Infectious Disease Research department of Southern Research Institute. Each plate contains cell control wells (cells only), virus control wells (cells plus virus), and experimental wells (drug plus cells plus virus). Alternatively, cells were cultured in T25 cm^2 or T75 cm^2 tissue culture flasks at a starting density of 1×10^6 cells per ml. Serially diluted compounds were added to the microtiter plate or tissue culture flask followed by the appropriate pre-titered strain of HIV-1. For virus replication inhibition experiments the HIV-1 strain RoJo was used. This is a low passage presumable subtype B pediatric isolate with a syncytium inducing (SI) phenotype in MT-2 cells isolated by Southern Research Institute personnel. All samples were assayed in triplicate where possible with an accompanying determination of compound toxicity. The final volume per well in the microtiter plates was 200 μL. The final volume in the tissue culture flask varied depending upon experimental design and flask size. Assays were incubated for 6 days in a humidified atmosphere at 37° C., 5% CO2, after which supernatants were collected, for analysis of RT activity and cell viability by MTS dye reduction. Culture were also examined microscopically, any abnormalities noted, and in the case of tissue culture flasks cell counts and viability determined by Trypan Blue Dye exclusion.
Time-of-addition assays were performed with PBMCs in two ways. For both assays, PBMCs were isolated and cultured under the conditions as described above. Time-of-addition assays were carried out in either a tissue culture flask format (T-75 cm^2) or in microtiter wells. In both cases due to the lack of plastic adherence and heterogeneity of the PBMC population for susceptibility to infection, it was not possible to use complete removal of virus following a timed adsorption to synchronize the infection and limit the assay to a single round of infection. […]

[2] = test system: PBMCs; test: PBMC cytotoxicity in time-of-addition assay; assay type: cell-based, Human
Description: as §1
Time-of-addition assays were performed with PBMCs in two ways. For both assays, PBMCs were isolated and cultured under the conditions as described above. Time-of-addition assays were carried out in either a tissue culture flask format (T-75 cm^2) or in microtiter wells. In both cases due to the lack of plastic adherence and heterogeneity of the PBMC population for susceptibility to infection, it was not possible to use complete removal of virus following a timed adsorption to synchronize the infection and limit the assay to a single round of infection. Therefore, serial washing by partial removal of the media was used to reduce the concentration of virus and compound (if required) in the assay. Compound addition in relationship to antiviral activity was either assessed over a short addition interval immediately before or after virus addition or for up to 72 h post infection. For all assays virus replication was assessed at 6 days of culture by determining RT expression in cell-free supernatants. In the tissue culture flask format cells were counted and Trypan Blue Dye exclusion used to monitor compound cytotoxicity. Cell viability in the 96 well microtiter plate format was determined by MTS dye reduction. AZT was used as a positive control.
At assay termination the assay plates were stained with the soluble tetrazolium-based dye MTS (CellTiter96® Reagent Promega) to determine cell viability and quantify compound toxicity. MTS is metabolized by the mitochondria enzymes of metabolically active cells to a soluble formazan product, allowing the rapid quantitative analysis cell viability and compound cytotoxicity. […] At termination of the assay 20 μL of MTS reagent was added per well and incubated for 4 h at 37° C. […]

[3] = test system: PBMCs; test: PBMC apoptosis by flow cytometry (APO-BRDU kit); assay type: cell-based, Human
Description: Flow cytometry studies were carried out on PHA/IL-2 induced PBMCs treated for 6 days with the various test compounds. Prior to flow cytometry the PBMCs were washed, counted and 1×10^6 cells resuspended in PBS and stained for CD4 or CD8 surface markers using anti-CD4.PE or CD8.PE (both from PharMingen) for 30 min at 4° C. The PBMC were then washed, fixed (Cytofix) and permeabilized (Cytoperm) followed by staining for apoptosis-related DNA damage. Initial experiments used the BrdU Flow Kit from PharMigen (2354KK). […] For both kits, manufacturers instructions were followed for staining and analysis of the samples. Following the appropriate staining protocol the cells were analyzed using a Becton Dickinson (Bedford, Mass.) FACSSort
In another series of experiments, the IG compounds and cannabidiol treated cells were assessed for the induction of apoptosis (see Tables 8 and 9). […] As IL-2 is an essential component for maintaining the health of PHA induced PBMCs, a second focus of these studies focuses on the effect of the compounds in the absence of IL-2.

[4] = test system: HIV-1; test: HeLa CD4 LTR β-gal HIV-1 attachment assay; assay type: cell-based; details: Human immunodeficiency virus 1, HeLa, read-out: IC50
Description: The attachment assay was performed with the HeLa CD4 LTR , β-gal cells available from the AIDS Research and Reference Reagent Repository. […] HeLa CD4 LTR β-gal cells express cell surface CD4 and contain an LTR β-galactosidase reporter construct. Upon infection either the Tat protein incorporated into the virion or new Tat produced following virus integration and transcription trans-activates the LTR β-gal reporter, leading to expression of the β-galactosidase enzyme. HeLa CD4 LTR β-gal cells are routinely cultured with the required selection antibiotics and screened for mycoplasma contamination. Twenty-four h prior to initiation of the assay cells were trypsinized, counted and 1×10^4 cells placed in a 0.2 cm well in media without selection antibiotics. […] A known titer of virus was then added to the wells and the incubation continued for 1 h. At the end of the incubation the wells were washed 6 times with media and the culture continued for 48 h. At 48 h the wells were washed one time with PBS and β-galactosidase enzyme expression determined by chemiluminescence per manufacturers instructions (Tropix Gal-screen™, Tropix, Bedford, Mass.). Compound toxicity was monitored on sister plates using MTS dye reduction.

[5] = test system: HeLa CD4 LTR β-gal cells; test: Compound toxicity in attachment assay (MTS dye reduction, sister plates); assay type: cell-based
Description: At assay termination the assay plates were stained with the soluble tetrazolium-based dye MTS (CellTiter96® Reagent Promega) to determine cell viability and quantify compound toxicity. MTS is metabolized by the mitochondria enzymes of metabolically active cells to a soluble formazan product, allowing the rapid quantitative analysis cell viability and compound cytotoxicity. […] At termination of the assay 20 μL of MTS reagent was added per well and incubated for 4 h at 37° C. Adhesive plate sealers were used in place of the lids, the sealed plate was inverted several times to mix the soluble formazan product and the plate was read spectrophotometrically at 490 nm with a Molecular Devices Vmax plate reader.
The attachment assay was performed with the HeLa CD4 LTR , β-gal cells available from the AIDS Research and Reference Reagent Repository. […] HeLa CD4 LTR β-gal cells express cell surface CD4 and contain an LTR β-galactosidase reporter construct. Upon infection either the Tat protein incorporated into the virion or new Tat produced following virus integration and transcription trans-activates the LTR β-gal reporter, leading to expression of the β-galactosidase enzyme. HeLa CD4 LTR β-gal cells are routinely cultured with the required selection antibiotics and screened for mycoplasma contamination. Twenty-four h prior to initiation of the assay cells were trypsinized, counted and 1×10^4 cells placed in a 0.2 cm well in media without selection antibiotics. Media was removed at 24 h and compound in media placed on the cells and incubated for 15 to 30 min at 37° C. A known titer of virus was then added to the wells and the incubation continued for 1 h. At the end of the incubation the wells were washed 6 times with media and the culture continued for 48 h. At 48 h the wells were washed one time with PBS and β-galactosidase enzyme expression determined by chemiluminescence per manufacturers instructions (Tropix Gal-screen™, Tropix, Bedford, Mass.). Compound toxicity was monitored on sister plates using MTS dye reduction.

[6] = test system: HIV-1; test: HeLa CD4 LTR β-gal/HL2/3 HIV-1 fusion assay; assay type: cell-based; details: Human immunodeficiency virus 1, HL2/3, read-out: Antiviral Activity IC50
Description: This assay uses the HeLa CD4 LTR β-gal and HL2-3 cells available from the AIDS Research and Reference Reagent Repository. The HL2/3 are derived from HeLa cells and engineered to express HIV gp120 on their cell surface and Tat protein in their cytoplasma. Thus following gp 120/CD4/coreceptor-mediated fusion; cytoplasmic mixing results in the HL2/3 cell-derived Tat trans-activation of the β-galactosidase reporter. […] Twenty-four h prior to initiation of the assay cells were trypsinized, counted and 5×10^3 cells placed in a 0.2 cm well in media without selection antibiotics. To initiate the fusion assay HeLa CD4 LTR β-gal (5×10^3 cells per 0.2 cm well) were incubated with compound for 1 h at 37° C. HL2/3 cells (5×10^3) were added to the 0.2 cm well and the incubation continued for 48 h. At 48 h the wells were washed 1 time with PBS and β-galactosidase enzyme expression determined by chemiluminescence per manufacturers instructions (Tropix Gal-screen™, Tropix, Bedford, Mass.). Compound toxicity was monitored on sister plates using MTS dye reduction.

[7] = IL-2 supplemented media, 1 μM, HIV +
[8] = IL-2 supplemented media, 1 μM, HIV −

Molecule: Cc1cn([C@H]2C[C@H](N=[N+]=[N-])[C@@H](CO)O2)c(=O)[nH]c1=O [AZT, reference compound]
- enhancement of activity ([1]; 4 h preincubation): 4.6 fold
- IC50 ([1]; pre-treat 0 h prior to infection): 1.3 nM
- IC50 ([1]; pre-treat 2 h prior to infection): 1.1 nM
- IC50 ([1]; pre-treat 4 h prior to infection): 1.1 nM
- IC50 ([1]; pre-treat 24 h prior to infection): 3.1 nM
- TC50 ([2]; 6 h post infection): >4000 nM
- TC50 ([2]; at infection): >4000 nM
- TC50 ([2]; −4 h pre (relative to infection)): >4000 nM
- % Apoptosis ([3]; IL-2 deficient media, 1 μM, HIV +): 13.7%
- % Apoptosis ([3]; IL-2 deficient media, 1 μM, HIV −): 15.1%
- % Apoptosis [3, 7]: 13.3%
- Fold Change [3, 7]: 0.8
- % Apoptosis [3, 8]: 15.0%
- Fold Change [3, 8]: 1.3

Molecule: COc1cc(-c2ccc(/N=N/c3ccc4c(S(=O)(=O)O)cc(S(=O)(=O)O)c(N)c4c3O)c(OC)c2)ccc1/N=N/c1ccc2c(S(=O)(=O)O)cc(S(=O)(=O)O)c(N)c2c1O [CSB, Chicago Sky Blue, reference compound]
- IC50 ([4]; Experiment 1, pretreat 0 h): 1.1 µg/mL (≈ 1.22 µM)
- IC50 ([4]; Experiment 1, pretreat 4 h): 1.71 µg/mL (≈ 1.89 µM)
- IC50 ([4]; Experiment 1, pretreat 24 h): 1.3 µg/mL (≈ 1.44 µM)
- IC50 ([4]; Experiment 2, pretreat 0 h): 0.17 µg/mL (≈ 0.188 µM)
- IC50 ([4]; Experiment 2, pretreat 4 h): 2.11 µg/mL (≈ 2.33 µM)
- IC50 ([4]; Experiment 2, pretreat 24 h): 4.7 µg/mL (≈ 5.19 µM)
- TC50 ([5]; Experiment 1, pretreat 0 h): >10 µg/mL
- TC50 ([5]; Experiment 1, pretreat 4 h): >10 µg/mL
- TC50 ([5]; Experiment 1, pretreat 24 h): >10 µg/mL
- TC50 ([5]; Experiment 2, pretreat 0 h): >10 µg/mL
- TC50 ([5]; Experiment 2, pretreat 4 h): >10 µg/mL
- TC50 ([5]; Experiment 2, pretreat 24 h): >10 µg/mL
- IC50 [6]: 1.75 µg/mL (≈ 1.93 µM)

B1: FAS: positive control (kit and Fas ligand) of the apoptosis procedure (protein, UniProt P48023 130-281, looked up)
Tumor necrosis factor ligand …: QIGHPSPPPEKKELRKVAHLTGKSNSRSMPLEWEDTYGIVLLSGVKYKKGGLVINETGLYFVYSKVYFRGQSCNNLPLSHKVYMRNSKYPQDLVMMEGKMMSYCTTGQMWARSSYLGAVFNLTSADHLYVNVSELSLVNFEESQTFFGLYKL
- % Apoptosis ([3]; IL-2 deficient media, HIV +, positive control, concentration not given): 16.2%
- % Apoptosis ([3]; IL-2 deficient media, HIV −, positive control, concentration not given): 13.7%
- % Apoptosis ([3]; IL-2 supplemented media, HIV +, positive control, concentration not given): 17.3%
- % Apoptosis ([3]; IL-2 supplemented media, HIV −, positive control, concentration not given): 17.8%
